Patent publication EP0326331B1, “Substituted quinolines and cinnolines” (Dow AgroSciences LLC, priority 1988, dated 1989)
Where two headings read alike, the source gives them in different places.

What was measured:
Assay type in all cases: in vivo
corn rootworm = assay: Mite/insect screen, CRW; conditions: percent mortality, read-out: CRW RESULTS %
Summary of the method: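 Following dissolution in equal parts acetone and alcohol with 23 g/L and 13 g/L emulsifier blends and dilution with water, test solutions were scored for percent mortality at the end of standard exposures.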

[1] = tested on: melon aphids (Aphis gossypii Glover); assay: Mite/insect screen, MA; conditions: Aphis gossypii, percent mortality, read-out: MA RESULTS %
Summary of the method: (§1)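 Foliar spray to runoff (10 psi), 1 h drying; aqueous dilutions from acetone/alcohol emulsifier stock. Mortality (%) after standard exposure.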

[2] = tested on: Twospotted spider mites (Tetranychus urticae Koch); assay: Mite/insect screen, SM; conditions: Tetranychus urticae, percent mortality, read-out: SM RESULTS %
Summary of the method: as §1

[3] = tested on: southern armyworm (Spodopetra eridania Cramer); assay: Mite/insect screen, SAW; conditions: Spodoptera eridania, percent mortality, read-out: SAW RESULTS %
Summary of the method: as §1

[4] = tested on: Pseudoperonospora cubensis (downy mildew); assay: Test 1 greenhouse foliar spray screen, downy mildew on squash; conditions: for DOWN MDEW: disease control rating, foliar spray on squash, 400 ppm (+++ at 100 ppm); for pest or weed control at 400 ppm: Pseudoperonospora cubensis, foliar, Test 1, foliar spray on squash, disease control rating at 400 ppm / 100 ppm, read-out: DOWN MDEW
[5] = tested on: Botrytis cinerea (gray mold); assay: Test 1 greenhouse foliar spray screen, gray mold on grape berries; conditions: for GRAY MOLD: disease control rating, spray on grape berries, 400 ppm (+++ at 100 ppm); for pest or weed control at 400 ppm: Botrytis cinerea, foliar, Test 1, spray on grape berries, disease control rating at 400 ppm / 100 ppm
[6] = tested on: Pyricularia oryzae (rice blast); assay: whole plant or invertebrate; conditions: for RICE BLAST: disease control rating, foliar spray on rice, 400 ppm (+++ at 100 ppm); for pest or weed control at 400 ppm: Pyricularia oryzae, foliar, read-out: RICE BLAST, Test 1, foliar spray on rice, disease control rating at 400 ppm / 100 ppm
[7] = tested on: Puccinia recondita tritici (leaf rust); assay: Test 1 greenhouse foliar spray screen, leaf rust on wheat; conditions: for LEAF RUST: disease control rating, foliar spray on wheat, 400 ppm (+++ at 100 ppm); for pest or weed control at 400 ppm: Puccinia recondita, foliar, Test 1, foliar spray on wheat, disease control rating at 400 ppm / 100 ppm
[8] = tested on: Erysiphe graminis tritici (powdery mildew); assay: Test 1 greenhouse foliar spray screen, powdery mildew on wheat; conditions: for POWD MDEW: disease control rating, foliar spray on wheat, 400 ppm (+++ at 100 ppm); for pest or weed control at 400 ppm: Blumeria graminis, foliar, Test 1, foliar spray on wheat, disease control rating at 400 ppm / 100 ppm, read-out: POWD MDEW
[9] = foliar, rate 200 ppm, foliar spray on squash
[10] = foliar, rate 400 ppm, foliar spray on squash

SMILES	mortality at 12 ppm (corn rootworm; CRW RATE 12.00 PPM) [%]	mortality at 24 ppm (corn rootworm; CRW RATE 24.00 PPM) [%]	mortality at 200 ppm ([1]; SAW, SM & MA RATE 200 PPM) [%]	mortality at 400 ppm ([1]; SAW, SM & MA RATE 400 PPM) [%]	mortality at 200 ppm ([2]; SAW, SM & MA RATE 200 PPM) [%]	mortality at 400 ppm ([2]; SAW, SM & MA RATE 400 PPM) [%]	DOWN MDEW [4]	GRAY MOLD [5]	RICE BLAST [6]	LEAF RUST [7]	POWD MDEW [8]	mortality at 24 ppm (corn rootworm; CRW rate 24.00 ppm) [%]	mortality at 400 ppm [1, 10] [%]	mortality at 400 ppm [2, 10] [%]	mortality at 400 ppm [3, 10] [%]	pest or weed control at 400 ppm [4] [%]	pest or weed control at 400 ppm [5] [%]	pest or weed control at 400 ppm [6] [%]	pest or weed control at 400 ppm [7] [%]	pest or weed control at 400 ppm [8] [%]	also measured
CC(=O)N(CCC1CCCCC1)c1ccnc2c(F)cccc12 [Example 161, N-(2-cyclohexylethyl)-N-(8-fluoro-4-quinolinyl)acetamide]	0	40	0	80	0	0	+ (20-89% control at 400 ppm)	- (0-19% control at 400 ppm)	+ (20-89% control at 400 ppm)	- (0-19% control at 400 ppm)	+ (20-89% control at 400 ppm)	–	–	–	–	–	–	–	–	–	mortality at 200 ppm ([3]; SAW, SM & MA RATE 200 PPM): 0%; mortality at 400 ppm ([3]; SAW, SM & MA RATE 400 PPM): 0%
Nc1cccc2c(NCCc3ccc(Cl)cc3)ccnc12 [Example 110, N(4)-[2-(4-chlorophenyl)ethyl]-4,8-quinolinediamine]	0	0	0	0	0	0	++ (90-100% control at 400 ppm)	- (0-19% control at 400 ppm)	+ (20-89% control at 400 ppm)	++ (90-100% control at 400 ppm)	- (0-19% control at 400 ppm)	–	–	–	–	–	–	–	–	–	mortality at 200 ppm ([3]; SAW, SM & MA RATE 200 PPM): 0%; mortality at 400 ppm ([3]; SAW, SM & MA RATE 400 PPM): 0%
Fc1cccc2c(OCCCc3ccc(Oc4ccccc4)cc3)ccnc12 [Example 282, 8-fluoro-4-[3-(4-phenoxyphenyl)propoxy]quinoline]	–	–	–	–	–	–	–	–	–	–	–	0	0	0	0	0 to 19	0 to 19	20 to 89	0 to 19	0 to 19	mortality at 12 ppm (corn rootworm; CRW rate 12.00 ppm): 0%; mortality at 200 ppm [1, 9]: 0%; mortality at 200 ppm [2, 9]: 0%; mortality at 200 ppm [3, 9]: 0%
CC(=O)N(CCc1ccccc1Cl)c1ccnc2c(Cl)cccc12 [Example 132, N-[2-(2-chlorophenyl)ethyl]-N-(8-chloro-4-quinolinyl)acetamide]	0	0	0	0	0	0	- (0-19% control at 400 ppm)	- (0-19% control at 400 ppm)	- (0-19% control at 400 ppm)	- (0-19% control at 400 ppm)	- (0-19% control at 400 ppm)	–	–	–	–	–	–	–	–	–	mortality at 200 ppm ([3]; SAW, SM & MA RATE 200 PPM): 0%; mortality at 400 ppm ([3]; SAW, SM & MA RATE 400 PPM): 0%
FC(F)(F)c1ccc2c(NCCC3=CCCCC3)ccnc2c1 [Example 167, N-[2-(1-cyclohexenyl)ethyl]-7-(trifluoromethyl)-4-quinolinamine]	–	–	–	–	–	–	+ (20-89% control at 400 ppm)	- (0-19% control at 400 ppm)	- (0-19% control at 400 ppm)	- (0-19% control at 400 ppm)	+ (20-89% control at 400 ppm)	0	0	0	0	–	–	–	–	–	mortality at 12 ppm (corn rootworm; CRW rate 12.00 ppm): 0%; mortality at 200 ppm [1, 9]: 0%; mortality at 200 ppm [2, 9]: 0%; mortality at 200 ppm [3, 9]: 0%
Cc1cc(C)c(CCOc2ccnc3c(F)cccc23)c(C)c1 [Example 227, 8-fluoro-4-[2-(2,4,6-trimethylphenyl)ethoxy]quinoline]	–	–	–	–	–	–	–	–	–	–	–	0	0	0	0	0 to 19	0 to 19	20 to 89	20 to 89	0 to 19	mortality at 12 ppm (corn rootworm; CRW rate 12.00 ppm): 0%; mortality at 200 ppm [1, 9]: 0%; mortality at 200 ppm [2, 9]: 0%; mortality at 200 ppm [3, 9]: 0%
COc1ccc2nc(C)cc(NCCc3cccc(Oc4ccccc4)c3)c2c1 [Example 290, 6-methoxy-2-methyl-N-[2-(3-phenoxyphenyl)ethyl]-4-quinolinamine]	–	–	–	–	–	–	–	–	–	–	–	0	0	0	0	90 to 100	0 to 19	90 to 100	20 to 89	0 to 19	mortality at 12 ppm (corn rootworm; CRW rate 12.00 ppm): 0%; mortality at 200 ppm [1, 9]: 80%; mortality at 200 ppm [2, 9]: 80%; mortality at 200 ppm [3, 9]: 0%
CC(C)(C)c1ccc(CCOc2ccnc3ccccc23)cc1 [Example 262, 4-[2-[4-(t-butyl)phenyl]ethoxy]quinoline]	–	–	–	–	–	–	–	–	–	–	–	0	100	100	0	90 to 100	0 to 19	90 to 100	90 to 100	0 to 19	mortality at 12 ppm (corn rootworm; CRW rate 12.00 ppm): 0%; mortality at 200 ppm [1, 9]: 100%; mortality at 200 ppm [2, 9]: 100%; mortality at 200 ppm [3, 9]: 0%
Cc1cc(OCCC2CCCCC2)c2cc(F)ccc2n1 [Example 249, 6-fluoro-4-(2-cyclohexylethoxy)-2-methylquinoline]	–	–	–	–	–	–	–	–	–	–	–	0	0	0	0	0 to 19	0 to 19	0 to 19	0 to 19	0 to 19	–
Cc1ccc2c(NCCc3ccccc3Oc3ccccc3)ccnc2c1C [Example 64, 7,8-dimethyl-N-[2-(2-phenoxyphenyl)ethyl]-4-quinolinamine]	0	0	0	0	0	0	+++ (90-100% control at 100 ppm)	- (0-19% control at 400 ppm)	- (0-19% control at 400 ppm)	+ (20-89% control at 400 ppm)	+ (20-89% control at 400 ppm)	–	–	–	–	–	–	–	–	–	mortality at 200 ppm ([3]; SAW, SM & MA RATE 200 PPM): 60%; mortality at 400 ppm ([3]; SAW, SM & MA RATE 400 PPM): 0%
Cc1cc(NCCc2ccc(Cl)cc2)c2ccccc2n1 [Example 102, N-[2-(4-chlorophenyl)ethyl]-2-methyl-4-quinolinamine]	0	0	0	0	0	0	- (0-19% control at 400 ppm)	- (0-19% control at 400 ppm)	+ (20-89% control at 400 ppm)	- (0-19% control at 400 ppm)	+ (20-89% control at 400 ppm)	–	–	–	–	–	–	–	–	–	mortality at 200 ppm ([3]; SAW, SM & MA RATE 200 PPM): 0%; mortality at 400 ppm ([3]; SAW, SM & MA RATE 400 PPM): 50%
CC(C)c1ccccc1CCOc1ccnc2c(F)cccc12 [Example 217, 8-fluoro-4-[2-(2-(1-methylethyl)phenyl)ethoxy]quinoline]	–	–	–	–	–	–	–	–	–	–	–	0	0	0	0	90 to 100	0 to 19	90 to 100	90 to 100	90 to 100	–
